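Protocol summary: plate cells (96-well), add compound at 5 concentrations, incubate 48 h, interpolate endpoints linearly. The concentration for full growth arrest is given as TGI.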
What was measured:
Test in all cases: DTP human tumour cell line panel, 48 h
786-0 renal = test system: 786-0 renal
A498 renal = test system: A498 renal
A549 NSCLC = test system: A549 NSCLC
ACHN renal = test system: ACHN renal
BT-549 breast = test system: BT-549 breast
CAKI-1 renal = test system: CAKI-1 renal
CCRF-CEM leukemia = test system: CCRF-CEM leukemia
COLO 205 colon = test system: COLO 205 colon
DU-145 prostate = test system: DU-145 prostate
EKVX NSCLC = test system: EKVX NSCLC
HCT-116 colon = test system: HCT-116 colon
HCT-15 colon = test system: HCT-15 colon
HL-60(TB) leukemia = test system: HL-60(TB) leukemia
HOP-62 NSCLC = test system: HOP-62 NSCLC
HOP-92 NSCLC = test system: HOP-92 NSCLC
HS 578T breast = test system: HS 578T breast
HT29 colon = test system: HT29 colon
IGROV1 ovarian = test system: IGROV1 ovarian
K-562 leukemia = test system: K-562 leukemia
KM12 colon = test system: KM12 colon
LOX IMVI melanoma = test system: LOX IMVI melanoma
M14 melanoma = test system: M14 melanoma
MALME-3M melanoma = test system: MALME-3M melanoma
MCF7 breast = test system: MCF7 breast
MDA-MB-231 breast = test system: MDA-MB-231 breast
MDA-MB-435 = test system: MDA-MB-435
MDA-N = test system: MDA-N
MOLT-4 leukemia = test system: MOLT-4 leukemia
NCI-H226 lung = test system: NCI-H226 lung
NCI-H23 lung = test system: NCI-H23 lung
NCI-H460 lung = test system: NCI-H460 lung
NCI-H522 lung = test system: NCI-H522 lung
NCI/ADR-RES ovarian = test system: NCI/ADR-RES ovarian
OVCAR-3 ovarian = test system: OVCAR-3 ovarian
OVCAR-4 ovarian = test system: OVCAR-4 ovarian
OVCAR-5 ovarian = test system: OVCAR-5 ovarian
OVCAR-8 ovarian = test system: OVCAR-8 ovarian
PC-3 prostate = test system: PC-3 prostate
RXF 393 renal = test system: RXF 393 renal
SF-268 CNS = test system: SF-268 CNS
SF-295 CNS = test system: SF-295 CNS
SF-539 CNS = test system: SF-539 CNS
SK-MEL-2 melanoma = test system: SK-MEL-2 melanoma
SK-MEL-28 melanoma = test system: SK-MEL-28 melanoma
SK-MEL-5 melanoma = test system: SK-MEL-5 melanoma
SK-OV-3 ovarian = test system: SK-OV-3 ovarian
SN12C renal = test system: SN12C renal
SNB-19 CNS = test system: SNB-19 CNS
SNB-75 CNS = test system: SNB-75 CNS
SW-620 colon = test system: SW-620 colon
T-47D breast = test system: T-47D breast
TK-10 renal = test system: TK-10 renal
U251 CNS = test system: U251 CNS
UACC-257 melanoma = test system: UACC-257 melanoma
UACC-62 melanoma = test system: UACC-62 melanoma
UO-31 renal = test system: UO-31 renal
RPMI-8226 leukemia = test system: RPMI-8226 leukemia
SR leukemia = test system: SR leukemia

Compound: Cc1ccc(-c2cc(-c3ccc(Cl)cc3)nc(/N=C3\C(=O)N(CN(C)C)c4ccccc43)n2)cc1
- TGI (786-0 renal): > 100 µM
- TGI (A498 renal): > 100 µM
- TGI (A549 NSCLC): > 100 µM
- TGI (ACHN renal): > 100 µM
- TGI (BT-549 breast): > 100 µM
- TGI (CAKI-1 renal): > 100 µM
- TGI (CCRF-CEM leukemia): > 100 µM
- TGI (COLO 205 colon): > 100 µM
- TGI (DU-145 prostate): 97.8 µM
- TGI (EKVX NSCLC): > 100 µM
- TGI (HCT-116 colon): > 100 µM
- TGI (HCT-15 colon): > 100 µM
- TGI (HL-60(TB) leukemia): 26.2 µM
- TGI (HOP-62 NSCLC): > 100 µM
- TGI (HOP-92 NSCLC): > 100 µM
- TGI (HS 578T breast): > 100 µM
- TGI (HT29 colon): > 100 µM
- TGI (IGROV1 ovarian): > 100 µM
- TGI (K-562 leukemia): > 100 µM
- TGI (KM12 colon): > 100 µM
- TGI (LOX IMVI melanoma): 58.5 µM
- TGI (M14 melanoma): > 100 µM
- TGI (MALME-3M melanoma): > 100 µM
- TGI (MCF7 breast): > 100 µM
- TGI (MDA-MB-231 breast): > 100 µM
- TGI (MDA-MB-435): 32.1 µM
- TGI (MDA-N): 43.9 µM
- TGI (MOLT-4 leukemia): 33.5 µM
- TGI (NCI-H226 lung): > 100 µM
- TGI (NCI-H23 lung): > 100 µM
- TGI (NCI-H460 lung): > 100 µM
- TGI (NCI-H522 lung): 69.4 µM
- TGI (NCI/ADR-RES ovarian): > 100 µM
- TGI (OVCAR-3 ovarian): > 100 µM
- TGI (OVCAR-4 ovarian): > 100 µM
- TGI (OVCAR-5 ovarian): > 100 µM
- TGI (OVCAR-8 ovarian): > 100 µM
- TGI (PC-3 prostate): > 100 µM
- TGI (RXF 393 renal): 63.9 µM
- TGI (SF-268 CNS): > 100 µM
- TGI (SF-295 CNS): > 100 µM
- TGI (SF-539 CNS): > 100 µM
- TGI (SK-MEL-2 melanoma): > 100 µM
- TGI (SK-MEL-28 melanoma): > 100 µM
- TGI (SK-MEL-5 melanoma): > 100 µM
- TGI (SK-OV-3 ovarian): > 100 µM
- TGI (SN12C renal): > 100 µM
- TGI (SNB-19 CNS): > 100 µM
- TGI (SNB-75 CNS): > 100 µM
- TGI (SW-620 colon): > 100 µM
- TGI (T-47D breast): > 100 µM
- TGI (TK-10 renal): > 100 µM
- TGI (U251 CNS): > 100 µM
- TGI (UACC-257 melanoma): 94.7 µM
- TGI (UACC-62 melanoma): > 100 µM
- TGI (UO-31 renal): > 100 µM

Compound: COc1cccc(C23CCN(C)C(CC(O)C2)C3)c1OC (stereo unspecified)
- TGI (786-0 renal): > 100 µM
- TGI (A498 renal): > 100 µM
- TGI (A549 NSCLC): > 100 µM
- TGI (ACHN renal): > 100 µM
- TGI (BT-549 breast): > 100 µM
- TGI (CAKI-1 renal): > 100 µM
- TGI (CCRF-CEM leukemia): > 100 µM
- TGI (COLO 205 colon): > 100 µM
- TGI (DU-145 prostate): > 100 µM
- TGI (EKVX NSCLC): > 100 µM
- TGI (HCT-116 colon): > 100 µM
- TGI (HCT-15 colon): > 100 µM
- TGI (HL-60(TB) leukemia): > 100 µM
- TGI (HOP-62 NSCLC): > 100 µM
- TGI (HOP-92 NSCLC): > 100 µM
- TGI (HS 578T breast): > 100 µM
- TGI (HT29 colon): > 100 µM
- TGI (IGROV1 ovarian): > 100 µM
- TGI (K-562 leukemia): > 100 µM
- TGI (KM12 colon): > 100 µM
- TGI (LOX IMVI melanoma): > 100 µM
- TGI (M14 melanoma): > 100 µM
- TGI (MALME-3M melanoma): > 100 µM
- TGI (MCF7 breast): > 100 µM
- TGI (MDA-MB-231 breast): > 100 µM
- TGI (MDA-MB-435): > 100 µM
- TGI (MDA-N): > 100 µM
- TGI (MOLT-4 leukemia): > 100 µM
- TGI (NCI-H226 lung): > 100 µM
- TGI (NCI-H23 lung): > 100 µM
- TGI (NCI-H522 lung): > 100 µM
- TGI (NCI/ADR-RES ovarian): > 100 µM
- TGI (OVCAR-3 ovarian): > 100 µM
- TGI (OVCAR-4 ovarian): > 100 µM
- TGI (OVCAR-5 ovarian): > 100 µM
- TGI (OVCAR-8 ovarian): > 100 µM
- TGI (PC-3 prostate): > 100 µM
- TGI (RPMI-8226 leukemia): > 100 µM
- TGI (SF-268 CNS): > 100 µM
- TGI (SF-295 CNS): > 100 µM
- TGI (SF-539 CNS): > 100 µM
- TGI (SK-MEL-2 melanoma): > 100 µM
- TGI (SK-MEL-28 melanoma): > 100 µM
- TGI (SK-MEL-5 melanoma): > 100 µM
- TGI (SK-OV-3 ovarian): > 100 µM
- TGI (SN12C renal): > 100 µM
- TGI (SNB-19 CNS): > 100 µM
- TGI (SR leukemia): > 100 µM
- TGI (SW-620 colon): > 100 µM
- TGI (T-47D breast): > 100 µM
- TGI (TK-10 renal): > 100 µM
- TGI (U251 CNS): > 100 µM
- TGI (UACC-257 melanoma): > 100 µM
- TGI (UACC-62 melanoma): > 100 µM
- TGI (UO-31 renal): > 100 µM
